Assay results taken from article PMC5587747, “A natural chalcone induces apoptosis in lung cancer cells: 3D-QSAR, docking and an in vivo/vitro assay” (Scientific Reports, 2017).
≈ marks a conversion by molar mass, not a printed value. Like-named read-outs stand apart in the source and are kept apart here.

Legend:
H226 = test: MTT cytotoxicity assay, H226 cells; assay type: cell-based, human; settings: Homo sapiens, NCI-H226, lonchocarpin 100 μM, read-out: inhibition rate (IR %)
Description: (§1) The cytotoxicities of the tested flavonoids were assayed in ten human lung cancer cell lines (A549, H226, H358, H522, H292, H1944, H460, H1792, SW1573, and Calu-1) using MTT reduction assay. Cisplatin (DDP) was selected as a positive control. Compounds 1–37 were dissolved in DMSO to obtain a clear solution of 1 M, which was diluted to 400 mM, 200 mM, 100 mM, 75 mM, 50 mM, 37.5 mM, 25 mM, 10 mM and 1 mM respectively as stock solutions. The DMSO concentration in the medium was kept below 0.10%. Moreover, the stability of tested compounds in experimental buffer was confirmed at 24 h and 48 h respectively by means of HPLC analysis. Then the human lung cancer cells were placed in 96-well culture plates (5 × 10^4 cells/well) and incubated for 24 h. Then, the cells were pretreated with different concentrations of test samples (gradient concentrations 1.0, 10.0, 25.0, 37.5, 50, 75, 100, 200, 400, 1000 μM for compounds 1–37 and DDP) for 48 h. And cell growth was measured by MTT assays. The cytotoxicities against the lung cancer cells were determined systematically and expressed as IC50 value.

H292 cells [1] = test: Annexin V/PI apoptosis assay by flow cytometry; assay type: cell-based, human; settings: H292, 20 μM
Description: Cell apoptosis was evaluated by Annexin V/PI staining assay and analyzed using an apoptosis detection kit (Keygen, Nanjing, China)[37]. Briefly, H292 cells were cultured at the density of 1 × 10^6 cells/well. […] Both attached and floating cells were harvested at the arranged time point, and washed twice with ice-cold PBS, then resuspended in 100 μL binding buffer with Annexin V and PI for 15 min at 37 °C in darkness. Finally, the treated cells were analyzed by flow cytometry (Becton Dickinson, Franklin Lakes, NJ, USA) and Cell Quest software. The apoptosis rate was given by the following formula:
Apoptosis rate % = (number of apoptotic cells)/(number of total cells observed) × 100%.

H522 = test: MTT cytotoxicity assay, H522 cells; assay type: cell-based, human; settings: Homo sapiens, NCI-H522, lonchocarpin 100 μM, read-out: inhibition rate (IR %)
Description: as §1

H460 = test: MTT cytotoxicity assay, H460 cells; assay type: cell-based, human; settings: Homo sapiens, NCI-H460, lonchocarpin 100 μM, read-out: inhibition rate (IR %)
Description: as §1

[2] = system: Bcl-2, Bax, procaspase-3, cleaved caspase-3, cytochrome c, caspase-9 in H292 cells; test: Western blotting of apoptosis-related proteins; assay type: cell-based, human; settings: H292, 20 μM
Description: Western blotting was performed according to the method described in previous research. […] Then, the cells were harvested and then washed with PBS and lysed in a radio immune-precipitation assay buffer for 30 min. BCA protein assay kit (Byontime, Beijing, China) was used for determination of the total protein contents. And the protein samples were dissolved and seperated on 10% SDS-PAGE gels. After that the proteins were transferred to PVDF (polyvinylidene fluoride) (Bio-Rad, Hercules, CA) membranes and incubated sequentially with blocking buffer, primary antibodies, and horseradish peroxidase-conjugated secondary antibodies.

S180-bearing mice = test: In vivo antitumor activity in S180 implanted mice; settings: 12 days; for Tumor weight/g: mean ± SE
Description: The animal experiments were carried out according to the National Institute of Health Guide for the Care and Use of Laboratory Animals. And the use of experimental animals was approved by the Animal Ethics Committee of Shenyang Pharmaceutical University. Male Kunming mice, were housed in separate cages under standard conditions (20–24 °C), relative humidity (55% ± 5%) and a 12 h light/12 h dark cycle, and allowed to acclimatize for 3 days prior to the start of experiment. Cultured S180 cells were harvested and washed with sterilized PBS (pH 7.2) three times and resuspended at a density of 6 × 10^6 cells/ml. Mice received subcutaneous implants of 0.2 mL/mouse on the right flank by means of hypodermic injection. Then the mice were divided randomly into 5 groups, including model, positive control and treatment groups with 10 mice in each group after inoculation for 24 h. […] Both groups received oral administrations via an intubation needle every day. […] The weight of the mice was recorded every day throughout the experiment. Finally, the mice were sacrificed by cervical dislocation just 2 h after the last administration. Then the tumor and spleen tissues were harvested and weighed immediately. After that the in vivo tumor inhibition ratio was calculated as: Inhibition ratio (%) = 100((A−B)/A), in which A represents the average tumor weight of the control group and B is recorded as the tumor weight of the administration group. Then, the spleen index was recorded using the following formula:
Spleen index = the final weight of spleen (mg)/the final average body weight (g) without tumor.

A549 = test: MTT cytotoxicity assay, A549 cells; assay type: cell-based, human; settings: Homo sapiens, lonchocarpin 100 μM, read-out: inhibition rate (IR %)
Description: as §1

Vero cells = test: Cytotoxicity in Vero cells; assay type: cell-based; settings: at 1000 μM
H1944 = test: MTT cytotoxicity assay, H1944 cells; assay type: cell-based, human; settings: Homo sapiens, NCI-H1944, lonchocarpin 100 μM, read-out: inhibition rate (IR %)
Description: as §1

Calu-1 = test: MTT cytotoxicity assay, Calu-1 cells; assay type: cell-based, human; settings: Homo sapiens, lonchocarpin 100 μM, read-out: inhibition rate (IR %)
Description: as §1

SW1573 = test: MTT cytotoxicity assay, SW1573 cells; assay type: cell-based, human; settings: Homo sapiens, lonchocarpin 100 μM, read-out: inhibition rate (IR %)
Description: as §1

H358 = test: MTT cytotoxicity assay, H358 cells; assay type: cell-based, human; settings: Homo sapiens, NCI-H358, lonchocarpin 100 μM, read-out: inhibition rate (IR %)
Description: as §1

CEM leukaemic cell line = system: CEM leukaemic cell line; design: method as in PMID 12601679; settings: cited from earlier work
H1792 = test: MTT cytotoxicity assay, H1792 cells; assay type: cell-based, human; settings: Homo sapiens, NCI-H1792, lonchocarpin 100 μM, read-out: inhibition rate (IR %)
Description: as §1

H292 cells [3] = test: MTT cytotoxicity assay, H292 cells; assay type: cell-based, human; settings: Homo sapiens, NCI-H292; for IC50: H292 cells
Description: as §1

For `CC1(C)C=Cc2c(ccc(C(=O)/C=C/c3ccccc3)c2O)O1` [Compound 34, lonchocarpin], the inhibition at 100 µM (H226) was 62%, the “early apoptosis (lower right quadrant)” value (H292 cells [1]; 12 h) was 7.2% and the “late apoptosis (upper right quadrant)” value (H292 cells [1]; 12 h) was 3.9%. For the same molecule, the apoptosis (H292 cells [1]; 24 h) was “about 41.1%”, the apoptosis (H292 cells [1]; 48 h) was ~47.9% and the inhibition at 100 µM (H522) was 63%. The inhibition at 100 µM (H460) was 76.3%, the Bax protein expression [2] was “up-regulation” and the caspase-9 [2] was “activation”. For the same molecule, the “cytochrome c protein expression” value [2] was “up-regulation”, the procaspase-3 protein expression [2] was “reduction” and the Bcl-2 protein expression ([2]; 24 h and 48 h) was “obviously down-regulated”. The “cleaved caspase-3 protein expression” value ([2]; 48 h) was “significantly increased”, the “Body weight/g After experiment” value (S180-bearing mice; 25 mg/kg oral daily) was 26.45 ± 0.68 g and the “Body weight/g Before experiment” value (S180-bearing mice; 25 mg/kg oral daily) was 39.19 ± 2.15 g. For the same molecule, the “Inhibitory rate (%)” value (S180-bearing mice; 25 mg/kg oral daily) was 57.94%, the “Spleen index” value (S180-bearing mice; 25 mg/kg oral daily) was 3.08 mg/g and the Tumor weight/g (S180-bearing mice; 25 mg/kg oral daily) was 3.39 ± 0.69 g. For the same molecule, the “Body weight/g After experiment” value (S180-bearing mice; 50 mg/kg oral daily) was 28.99 ± 0.47 g, the “Body weight/g Before experiment” value (S180-bearing mice; 50 mg/kg oral daily) was 36.48 ± 1.38 g and the “Inhibitory rate (%)” value (S180-bearing mice; 50 mg/kg oral daily) was 63.40%. For the same molecule, the “Spleen index” value (S180-bearing mice; 50 mg/kg oral daily) was 3.17 mg/g, the Tumor weight/g (S180-bearing mice; 50 mg/kg oral daily) was 2.95 ± 0.66 g and the “Body weight/g After experiment” value (S180-bearing mice; 100 mg/kg oral daily) was 28.21 ± 1.98 g. For the same molecule, the “Body weight/g Before experiment” value (S180-bearing mice; 100 mg/kg oral daily) was 38.71 ± 2.20 g, the “Inhibitory rate (%)” value (S180-bearing mice; 100 mg/kg oral daily) was 72.51% and the “Spleen index” value (S180-bearing mice; 100 mg/kg oral daily) was 3.30 mg/g. The Tumor weight/g (S180-bearing mice; 100 mg/kg oral daily) was 2.21 ± 0.72 g, the inhibition at 100 µM (A549) was 42.3% and the “cytotoxicity in Vero cells” value (Vero cells; listed as Lonchocarpin) was “no cytotoxicity”. For the same molecule, the “cytotoxicity in Vero cells” value (Vero cells; listed as lonchocarpin) was “no toxicity”, the inhibition at 100 µM (H1944) was 69.2% and the inhibition at 100 µM (Calu-1) was 23.8%. For the same molecule, the inhibition at 100 µM (SW1573) was 92.3%, the inhibition at 100 µM (H358) was 51.3% and the IC50 (CEM leukaemic cell line) was 10.4 µg/mL (≈ 33.9 µM). It also gave an inhibition at 100 µM (H1792) of 46.7%, an inhibition at 100 µM (H292 cells [3]; H292, lonchocarpin 100 μM, read-out: inhibition rate (IR %)) of 97.5% and an IC50 (H292 cells [3]; MTT, 48 h, read-out: IC50) of 10 µM. For the same molecule, the IC50 (H292 cells [3]; Table S2, read-out: pIC50 (converted)) was 10 µM.
